Key:
[1] = target: T1, Hoxd13 +7A IDR-Med1 IDR co-condensates (Homo sapiens, UniProt P35453, DUP65-71); test: in vitro droplet assay, compound treatment of Hoxd13 IDR-Med1 IDR co-condensates; format: biochemical; conditions: purified Hoxd13 +7A IDR-mCherry mixed with MED1 IDR-GFP; FIG. 3G-J, FIG. 8
T1 construct: His tag (from pET45b(+); purified on a His column); made in house; host or cells: E. coli BL21(DE3)
T1 sequence (P35453 with tags, fused parts or gaps DUP65-71): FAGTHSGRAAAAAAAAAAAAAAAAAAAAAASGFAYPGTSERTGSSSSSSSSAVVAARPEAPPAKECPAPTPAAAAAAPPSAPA
Protocol: (§1) For image analysis, droplets were first automatically thresholded in either the mEGFP or mCherry channel using Zen Blue (Version 3.0), and then filtered by size, pixel intensity, and pixel deviation. Mean fluorescence intensities, area, and diameter of these primary regions were measured on both channels. For quantification and data visualization (FIG. 1J, 2H, 3B-E, 3H-J, 6F, 6H, 60, 6Q), raw values for diameter, mean intensity, or area were plotted as indicated in figure legends using R-Studio and the Directlabels package.
(§2) For in vitro droplet formation, recombinant mCherry or mEGFP fusion proteins were measured for concentration, and then diluted or mixed to suitable final concentrations in storage buffer. For microscopy, these solutions were further diluted 1:2 in either 20% or 10% PEG-8000 in deionized water (w/v). 10 μL of this suspension was pipetted onto chambered coverslips, and immediately imaged using a LSM880 confocal microscope equipped with a 63×1.40 oil DIC objective and AiryScan detector. All images were acquired from within the solution interface, and performed before droplets settled onto the bottom of the coverslip, as described in (Sabari et al., 2018). For droplet assays using preformed GFP-Med1 condensates (FIG. 3E-F), GFPMed1 droplets were allowed to form for 30 minutes at room temperature in the presence of 10% PEG-8000, before proceeding with co-condensation assays. For compound treatments of cocondensates (FIG. 3G-J), small molecules [ATP (Jena Bioscience, NU-1010), Mitoxantrone dihydrochloride (Sigma M6545), (±)-α-lipoic acid (Sigma 62320), and lipoamide, (Medchemexpress HY-B1142)] were directly diluted into droplet mixtures with or without vehicle (DMSO, Sigma D2650) to the desired final concentrations.

[2] = test system: Hoxd13 puncta in limb bud cells; test: 1,6-hexanediol treatment of limb bud cells, Hoxd13 immunofluorescence; format: cell-based, mouse; conditions: 6% for 1 min; limb bud cells expressing +7A Hoxd13 (spdh) versus wt
Protocol: 1,6-hexanediol treatment: Isolated limb bud cells attached to fibronectin coated glass coverslips were treated with 6% or 0% hexanediol (Sigma, 240117) in 1 mL cell culture media for 1 minute at 37° C. After treatment, cells were washed with 1 mL of PBS, and immediately fixed in 4% paraformaldehyde in PBS for 10 min. Fixed cells were washed and then stored at 4° C. until processing for immunofluorescence and microscopy.
Isolated limb bud cells, Kelly cells, and SH-SY5Y cells attached to coated glass coverslips were fixed in 4% paraformaldehyde (PFA) (Sigma-Aldrich, P6148) in PBS for 10 min and stored at 4° C. in PBS or processed immediately. Cells were permeabilized in 0.1% Triton X-100 (Thermo Scientific, 85111) in PBS for 10 min at RT. […]
Hoxd13 puncta detected in fixed cell immunofluorescence (FIG. 4C-D) were analyzed using a similar workflow described above. Nuclear regions were automatically detected in the Zen Blue (Zeiss) software package using the DAPI counterstain signal. Puncta were segmented on morphology, and then filtered based on fluorescence intensity and circularity. […] Values for nuclear area, Hoxd13 puncta area, Hoxd13 puncta mean fluorescence intensity, and Hoxd13 puncta count were measured for 120 wild type cells, 143 1-6 HD treated wild type cells, 63 spdh cells, and 62 1-6 HD treated spdh cells.

[3] = test system: Hoxd13 +7A IDR-Med1 IDR co-condensates; test: in vitro droplet assay, compound treatment of Hoxd13 IDR-Med1 IDR co-condensates; format: biochemical; conditions: summary statement; TFs containing disease-mutations
Protocol: as §1, §2

Row | Compound | reblending of co-condensates (ratio of GFP and mCherry fluorescence in HOXD13 IDR-mCherry containing droplets) [1] | sensitivity of Hoxd13 puncta to 1,6-HD [2] | composition of heterotypic condensates formed by Cluster 1 TFs with transcriptional co-activators (co-activator and TF content) [3]
1 | OCCCCCCO [1,6-HD, 1,6-hexanediol] | – | considerably reduced sensitivity | –
2 | adenosine tri-phosphate [ATP] | reblended Hoxd13 +7A IDR-Med1 IDR co-condensates in a dose dependent manner | – | revert the compositional alteration

Now from value to compound, other results behind:

Row | reblending of co-condensates (ratio of GFP and mCherry fluorescence in HOXD13 IDR-mCherry containing droplets) [1] | Compound | sensitivity of Hoxd13 puncta to 1,6-HD [2] | composition of heterotypic condensates formed by Cluster 1 TFs with transcriptional co-activators (co-activator and TF content) [3]
3 | failed to reblend | NC(=O)CCCCC1CCSS1 (stereo not shown) [lipoamide] | – | –
4 | failed to reblend | O=C(O)CCCCC1CCSS1 (racemic) [lipoic acid, (±)-α-lipoic acid] | – | –
5 | capable of reblending | Nc1ncnc2c1ncn2[C@@H]1O[C@H](COP(=O)(O)OP(=O)(O)NP(=O)(O)O)[C@@H](O)[C@H]1O [APPNP, adenosine-5′-[(β,γ)-imido]triphosphate] | – | effective

Reference: US20230168255A1, “UNBLENDING OF TRANSCRIPTIONAL CONDENSATES IN HUMAN REPEAT EXPANSION DISEASE” (Max-Planck-Gesellschaft zur Förderung der Wissenschaften …, priority 2020, published 2023)
